Source: patent US20110230659A1, “CYCLOBUTYL PURINE DERIVATIVE, ANGIOGENESIS PROMOTING AGENT, LUMEN FORMATION PROMOTING AGENT, NEUROCYTE GROWTH PROMOTING AGENT, AND DRUG” (NATIONAL UNIVERSITY CORPORATION KAGAWA UNIVERSITY, priority 2008, published 2011)

What was measured:
ERK = ERK activation (phosphorylation) immunoblot in HUVEC; type: cell-based, human
Procedure: First, to a HuMedia-EB2 medium (Kurabo) to which 2 v/v % inactivated fetal bovine serum (FBS) had been added, 2-Cl—C.OXT-A was added so that its concentration became 100 μmol/l. Thus, a medium was prepared. Using the medium, human umbilical vein endothelial cells (HUVEC) were cultured for predetermined periods (0, 10, 20, 30, 45, and 60 minutes).
After the culture, cells were collected. The collected cells were lysed by adding a cell lysis buffer (SDS-lysis buffer) thereto, and heat-denatured at 95° C. for 5 minutes. The solubilized protein in an amount corresponding to 5 v/v % of the heat-denatured cell lysate was subjected to electrophoresis using 10% SDS-polyacrylamide gel, whereby the solubilized protein was transferred onto a nitrocellulose membrane (Amersham Biosciences). To 20 ml of TBS-T having the following composition, skim milk (Wako) was added so that its concentration became 5%, thus preparing a blocking solution. The resultant nitrocellulose membrane was immersed in the blocking solution and shaken at room temperature for 1 hour.
(§1) Primary antibodies shown below were diluted 1000-fold by adding them to 5% bovine serum albumin (Sigma)-containing TBS-T, thus preparing a primary antibody solution. The nitrocellulose membrane after being subjected to the blocking was immersed in the primary antibody solution, and shaken at room temperature for 1 hour. The resultant nitrocellulose membrane was immersed in the TBS-T and washed by being shaken for 10 minutes. This washing operation was carried out three times in total.
as §1, with “Secondary” for “Primary”, “20000-fold” for “1000-fold”, “to” for “to 5% bovine serum albumin (Sigma)-containing”, “secondary” for “primary”, “having undergone” for “after being subjected to”, “reaction with the primary antibodies” for “blocking”
The enzymes were visualized with SuperSignal (registered trademark) West Pico Chemiluminescent Substrate (Pierce), and detected by being exposed to RX—U X-ray film (FUJIFILM Corporation). From the detected bands, the respective phosphoenzymes and total enzymes were quantified using an NIH image software. Furthermore, the relative value (−fold) of each phosphoenzyme was calculated by substituting the measured value of the phosphoenzyme into the following equation (III).
Relative value(−fold)of phosphoenzyme=(B/D)/(A/C) (III)
In the present example, the effect of 2-Cl—C.OXT-A of Example 1 and C.OXT-G of Comparative Example 2 on the activation (phosphorylation) of ERK was examined. In the present example, the amount of each enzyme was measured and the relative value (−fold) of each phosphoenzyme was calculated in the same manner as in Example 3, except that: a medium to which 2-Cl—C.OXT-A had been added so as to achieve predetermined concentrations (0, 10 and 100 μmol/l) and a medium to which 100 μmol/l C.OXT-G had been added were used; the culture period after the addition was set to 20 minutes: as the primary antibodies, only an anti-phospho ERK polyclonal antibody (Catalog No. 9101, Cell Signaling Technology) and an anti-total ERK monoclonal antibody (Catalog No. 610408, BD Transduction Laboratory) were used; as the secondary antibody for ERK, a sheep HRP-labeled anti-mouse IgG antibody (Pierce) was used; and as a secondary antibody of pERK, a sheep HRP-labeled anti-rabbit IgG antibody (Pierce) was used.
In the present example, the effect of PD98059 as an MEK inhibitor on the ERK activation (phosphorylation) by 2-Cl—C.OXT-A used in Example 1 was examined. […]

[1] = test system: human umbilical vein endothelial cells (HUVEC) and normal human dermal fibroblasts; experiment: Measurement of lumen formation (angiogenesis kit, CD31 immunostaining, lumen area); type: cell-based; details: for lumen formation promoting-activity for vascular endothelial cells: examined in the same manner as in Example 1
Procedure: The measurement of lumen formation was carried out in the following manner using commercially available angiogenesis kits (Kurabo), each including human umbilical vein endothelial cells (HUVEC) and normal human dermal fibroblasts. First, sample solutions were prepared by dissolving 2-Cl—C.OXT-A in physiological saline so as to achieve predetermined concentrations (1, 10, 100, 500 μmol/l, 1, 5, 10, 50 mmol/l). Then, the sample solutions containing 2-Cl—C.OXT-A at the predetermined concentrations respectively were added to media provided in the kits so that their concentrations became 10 v/v %. Thus, lumen formation media were prepared. The final concentrations of 2-Cl—C.OXT-A in the lumen formation media were 0.1, 1, 10, 50, 100, 500 μmol/l, 1 and 5 mmol/1.
Using each of the lumen formation media, the human umbilical vein endothelial cells (HUVEC) and the normal human dermal fibroblasts were cultured for 10 days. After the culture, the human umbilical vein endothelial cells (HUVEC) were immunostained using a lumen staining kit (for CD31 staining, Kurabo). Then, using NIH Image (image processing and analysis software), the area of a portion stained by the immunostaining (lumen area) was measured. As a control, a medium provided in the kit was used instead of the lumen formation medium to carry out the culture, and the cells were immunostained and the lumen area was measured in the same manner as in the above. Then, using the following equation (II), the relative value of lumen area in the culture using each of the lumen formation media containing 2-Cl—C.OXT-A at the predetermined concentrations was calculated.
In the present example, the relative value of lumen area was calculated in the same manner as in the lumen formation measurement in Example 1, except that the measurement was carried out with respect to four groups respectively using media Nos. 5 to 8 prepared by adding 2-Cl—C.OXT-A and PD98059 to media provided in the above-described angiogenesis kits (Kurabo) so that their concentrations became as shown in Table 2 below. In the group using the medium No. 7, the culture was conducted using the medium No. 7 from the first to third days of the culture and the medium No. 5 from the fourth to tenth days of the culture, and in the group using the medium No. 8, the culture was conducted using the medium No. 8 from the first to third days of the culture and the medium No. 6 from the fourth to tenth days of the culture.
In the present example, the relative value of lumen area was calculated in the same manner as in the lumen formation measurement in Example 1, except that the measurement was carried out with respect to six groups respectively using media Nos. 15 to 20 prepared by adding 2-Cl—C.OXT-A, VEGF (positive control), and SU5416 to media provided in the above-described angiogenesis kit (Kurabo) so that their concentrations became as shown in Table 4 below. In the group using the medium No. 16, the culture was conducted using the medium No. 16 from the first to third days of the culture and the medium No. 15 from the fourth to tenth days of the culture; in the group using the medium No. 18, the culture was conducted using the medium No. 18 from the first to third days of the culture and the medium No. 17 from the fourth to tenth days of the culture; and in the group using the medium No. 20, the culture was conducted using the medium No. 20 from the first to third days of the culture and the medium No. 19 from the fourth to tenth days of the culture.

[2] = test system: Human umbilical vein endothelial cells (HUVEC); experiment: Measurement of cell proliferation (Cell Counting Kit-8); type: cell-based; details: examined in the same manner as in Example 1
Procedure: Sample solutions were prepared by dissolving 2-Cl—C.OXT-A in physiological saline so as to achieve predetermined concentrations (0.5, 1, 5, 10, 50, 100 mmol/l). Then, the sample solutions containing 2-Cl—C.OXT-A at the predetermined concentrations respectively were added to HuMedia-EB2 media (Kurabo) to which 2 v/v % inactivated fetal bovine serum (FBS) had been added so that their concentrations became 10 v/v %. Thus, cell proliferation media were prepared. The final concentrations of 2-Cl—C.OXT-A in the cell proliferation media were 50, 100, 500 μmol/l, 1, 5, and 10 mmol/1.
Human umbilical vein endothelial cells (HUVEC) suspended in a HuMedia-EG2 medium (Kurabo) were inoculated into each of gelatin-coated wells of a 96-well plate at a density of 3×10^3 cells per well, and cultured for 24 hours. 24 hours after the start of the culture, the medium was removed, and 100 μl of the cell proliferation medium was added to each well. The cells were cultured for another 48 hours. After the completion of the culture, a color reaction was caused using a Cell Counting Kit-8 (Dojindo Laboratories). 2 hours after the start of the reaction, the absorbance at 450 nm was measured using a microplate reader. As a control, a HuMedia-EB2 medium (Kurabo) to which 2 v/v % inactivated fetal bovine serum (FBS) had been added was used instead of the cell proliferation medium to carry out the culture, and a color reaction was caused and the absorbance was measured in the same manner as in the above. Then, using the following equation (I), the relative absorbance in the culture using each of the cell proliferation media containing 2-Cl—C.OXT-A at the predetermined concentrations was calculated.

[3] = test system: Human umbilical vein endothelial cells (HUVEC); experiment: Measurement of cell migration (CytoSelect 24-well Cell Migration Assay); type: cell-based; details: examined in the same manner as in Example 1
Procedure: Measurement of cell migration was carried out in the following manner using CytoSelect 24-well Cell Migration Assay (CBA-100, Cell Biolabs) kits. First, sample solutions were prepared by dissolving 2-Cl—C.OXT-A in physiological saline so as to achieve predetermined concentrations (0.1, 0.5, 1 mmol/l). Then, the sample solutions containing 2-Cl—C.OXT-A at the predetermined concentrations respectively were added to HuMedia-EB2 media (Kurabo) to which 2 v/v % inactivated fetal bovine serum (FBS) had been added so that their concentrations became 10 v/v %. Thus, cell migration media were prepared. The final concentrations of 2-Cl—C.OXT-A in the cell migration media were 10, 50, and 100 μmol/l.
Human umbilical vein endothelial cells (HUVEC) were suspended in a HuMedia-EB2 medium (Kurabo) to which 2 v/v % inactivated fetal bovine serum (FBS) had been added at a density of 0.5×10^6 cells/ml. Thus, a cell suspension was prepared. 300 μl of the cell suspension was added to an upper compartment (i.e., in an insert) of a polycarbonate membrane plate provided in the kit, and 500 μl of the cell migration medium was added to a lower compartment (i.e., in a well) of the plate. Then, the cells were cultured at 37° C. for 24 hours. After the completion of the culture, the membrane on the inner bottom face of the insert was wiped out with a cotton swab to remove the cells on the membrane. Then, cells having migrated to the rear face of the membrane (the membrane on the outer bottom face of the insert) were stained using a staining solution provided in the kit, and then photographed from below the insert. After the photographing, the dye was extracted with an extracting solution provided in the kit, and the absorbance at 560 nm was measured using a microplate reader. As a control, a HuMedia-EB2 medium (Kurabo) to which 2 v/v % inactivated fetal bovine serum (FBS) had been added was used instead of the cell migration medium to carry out the culture, and the cells were stained and the absorbance was measured in the same manner as in the above. Then, using the above equation (I), the relative absorbance in the culture using each of the cell migration media containing 2-Cl—C.OXT-A at the predetermined concentrations was calculated.

SMILES	amount of pERK (ERK; Example 4, 100 μmol/l C.OXT-G, 20 minutes)	relative value of lumen area compared with control ([1]; Example 7, medium No. 8: 2-Cl—C.OXT-A 10 μmol/l + PD98059 10 nmol/l (first to third days))	increase in pERK (ERK; Example 6, medium No. 3: only PD98059 100 nmol/l)	ERK activation by 2-Cl—C.OXT-A in the presence of PD98059 (ERK; Example 6, medium No. 4: 2-Cl—C.OXT-A 100 μmol/l + PD98059 100 nmol/l)	lumen formation promoting-activity for vascular endothelial cells [1]	cell proliferation promoting-activity for vascular endothelial cells [2]	cell migration promoting-activity for vascular endothelial cells [3]
Nc1nc2c(ncn2C2CC(CO)C2CO)c(=O)[nH]1 (stereo not drawn) [C.OXT-G, 2-amino-9-[trans-trans-2,3-bis(hydroxymethyl)cyclobutyl]-3H-purine-6-one, reference compound]	not increased	–	–	–	–	–	–
COc1cccc(-c2cc(=O)c3ccccc3o2)c1N [PD98059, reference compound]	–	about 1 fold	not observed	inhibited	–	–	–
CC(=O)OCC1CC(n2cnc3c(=O)[nH]c(N)nc32)C1COC(C)=O (stereo not drawn) [chemical formula (17), 9-[trans-trans-2,3-bis(acetyloxymethyl)cyclobutyl]guanine]	–	–	–	–	exhibited	exhibited	exhibited
CC(=O)OCC1CC(n2c(Br)nc3c(=O)[nH]c(N)nc32)C1COC(C)=O (stereo not drawn) [chemical formula (18), 8-bromo-9-[trans-trans-2,3-bis(acetyloxymethyl)cyclobutyl]guanine]	–	–	–	–	exhibited	exhibited	exhibited
Nc1nc2c(nc(Br)n2C2CC(CO)C2CO)c(=O)[nH]1 (stereo not drawn) [chemical formula (19), 8-bromo-9-[trans-trans-2,3-bis(hydroxymethyl)cyclobutyl]guanine]	–	–	–	–	exhibited	exhibited	exhibited
CC(=O)OCC1CC(n2c(Cl)nc3c(Cl)nc(N)nc32)C1COC(C)=O (stereo not drawn) [chemical formula (20), 2-amino-6,8-dichloro-9-[trans-trans-2,3-bis(acetyloxymethyl)cyclobutyl]purine]	–	–	–	–	exhibited	exhibited	exhibited
COc1nc(N)nc2c1nc(OC)n2C1CC(CO)C1CO (stereo not drawn) [chemical formula (21), 2-amino-6,8-dimethoxy-9-[trans-trans-2,3-bis(hydroxymethyl)cyclobutyl]purine]	–	–	–	–	exhibited	exhibited	exhibited
